Experimental data: article PMC12715762, “Discovery of VU6052254: A Novel, Potent M1 Positive Allosteric Modulator” (ACS Chemical Neuroscience, 2025)

Assays:
[1] = IV/PO pharmacokinetics (dog); assay type: in vivo; details: Dog (beagle)
[2] = brain to plasma ratio (rat); assay type: in vivo
Description: covered in Principles of Laboratory Animal Care (National Institutes of Health). All rats were fasted overnight prior to testing.
For determination of the brain over plasma ratio (Kp), compounds were formulated in 8% ethanol, 32% PEG400 and 60% DMSO (v/v/v) and administered as a single 0.2 mg/kg IV dose (1 mL/kg) to male, Sprague Dawley rats (n = 1) via injection into a surgically-implanted jugular vein catheter. At 15 min post dosing, blood sample was collected into chilled, K2EDTA anticoagulant-fortified tube and immediately placed on wet ice. The blood sample was then centrifuged (1700 rcf, 5 minutes, 4 °C) to obtain plasma sample. At the same post-administration time point, whole brain sample was obtained by rapid dissection, rinsed with PBS, and immediately frozen in individual tissue collection box (dry ice). All brain and plasma samples were stored at -80 °C until […]
Sample Analysis: Concentrations in plasma and brain homogenates were quantified by liquid chromatography tandem mass spectrometry (LC-MS/MS). Whole brains were homogenized in 3 mL of 70:30 IPA:water in a mini bead beater for 3 min, and centrifuged at 3,500 g for 5 min. 5 uL of the supernatant was diluted in 15 uL of blank plasma for quantification of the analytes. Plasma samples were centrifuged at 3,500 g for 5 min. […]
Plasma and brain tissue samples originating from in vivo studies were analyzed by electrospray ionization using an AB Sciex Q-TRAP 5500 (Foster City, CA) that was coupled to a Shimadzu LC-20AD pump (Columbia, MD) and a Leap Technologies CTC PAL auto-sampler (Carrboro, NC). […]
min, with an isocratic hold for 0.5 min, before transitioning to 10% B over 0.05 min. […] All data were analyzed using AB Sciex Analyst 1.5.1 software.
Brain plasma concentration ratio (Kp) was calculated by dividing brain concentration by plasma concentration for each animal. Unbound brain to unbound plasma concentration ratio (Kp,uu) is calculated using the following formula: Kp,uu = (Brain ng/g x brain fu)/(plasma ng/ml x plasma fu). […]

[3] = target: Androgen (Testosterone) (Homo sapiens, UniProt P10275); experiment: Eurofins radioligand binding
Androgen (Testosterone), sequence (P10275 whole entry): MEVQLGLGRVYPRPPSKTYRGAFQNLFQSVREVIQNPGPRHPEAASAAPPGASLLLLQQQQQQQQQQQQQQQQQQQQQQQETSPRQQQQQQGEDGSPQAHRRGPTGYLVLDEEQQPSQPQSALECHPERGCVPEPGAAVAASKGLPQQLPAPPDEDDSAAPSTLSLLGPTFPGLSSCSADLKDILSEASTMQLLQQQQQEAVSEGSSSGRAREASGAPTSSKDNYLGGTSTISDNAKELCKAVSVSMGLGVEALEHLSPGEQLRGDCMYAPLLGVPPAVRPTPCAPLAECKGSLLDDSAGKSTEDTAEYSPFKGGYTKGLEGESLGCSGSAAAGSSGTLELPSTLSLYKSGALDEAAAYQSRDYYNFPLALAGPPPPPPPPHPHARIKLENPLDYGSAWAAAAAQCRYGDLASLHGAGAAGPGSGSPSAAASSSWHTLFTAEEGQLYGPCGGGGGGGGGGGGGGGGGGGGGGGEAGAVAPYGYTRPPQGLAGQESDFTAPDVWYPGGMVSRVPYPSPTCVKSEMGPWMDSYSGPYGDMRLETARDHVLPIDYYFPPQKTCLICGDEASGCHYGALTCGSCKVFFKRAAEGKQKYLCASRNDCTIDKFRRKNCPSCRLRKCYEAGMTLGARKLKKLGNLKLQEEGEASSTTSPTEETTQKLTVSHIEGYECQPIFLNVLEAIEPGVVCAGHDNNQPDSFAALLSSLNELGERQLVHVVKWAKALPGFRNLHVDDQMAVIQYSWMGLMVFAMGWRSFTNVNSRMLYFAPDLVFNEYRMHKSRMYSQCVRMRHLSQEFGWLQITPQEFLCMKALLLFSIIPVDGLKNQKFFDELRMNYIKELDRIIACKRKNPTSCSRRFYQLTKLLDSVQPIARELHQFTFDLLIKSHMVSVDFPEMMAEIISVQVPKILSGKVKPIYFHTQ

[4] = target: Neuropeptide Y Y2 (Homo sapiens, UniProt P49146); experiment: Eurofins radioligand binding
Neuropeptide Y Y2, sequence (P49146 whole entry): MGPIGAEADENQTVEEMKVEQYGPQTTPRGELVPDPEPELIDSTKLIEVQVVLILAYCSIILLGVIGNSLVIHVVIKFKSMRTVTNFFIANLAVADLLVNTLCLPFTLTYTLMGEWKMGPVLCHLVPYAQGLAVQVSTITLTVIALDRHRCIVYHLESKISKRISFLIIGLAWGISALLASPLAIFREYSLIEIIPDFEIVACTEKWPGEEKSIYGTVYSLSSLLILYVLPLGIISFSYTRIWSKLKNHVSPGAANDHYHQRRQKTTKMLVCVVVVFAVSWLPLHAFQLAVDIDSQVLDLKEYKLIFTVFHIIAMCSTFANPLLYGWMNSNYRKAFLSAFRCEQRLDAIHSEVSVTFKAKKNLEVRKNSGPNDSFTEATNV

[5] = target: Serotonin (5-HT1A) (Homo sapiens, UniProt P08908); experiment: Eurofins radioligand binding
Serotonin (5-HT1A), sequence (P08908 whole entry): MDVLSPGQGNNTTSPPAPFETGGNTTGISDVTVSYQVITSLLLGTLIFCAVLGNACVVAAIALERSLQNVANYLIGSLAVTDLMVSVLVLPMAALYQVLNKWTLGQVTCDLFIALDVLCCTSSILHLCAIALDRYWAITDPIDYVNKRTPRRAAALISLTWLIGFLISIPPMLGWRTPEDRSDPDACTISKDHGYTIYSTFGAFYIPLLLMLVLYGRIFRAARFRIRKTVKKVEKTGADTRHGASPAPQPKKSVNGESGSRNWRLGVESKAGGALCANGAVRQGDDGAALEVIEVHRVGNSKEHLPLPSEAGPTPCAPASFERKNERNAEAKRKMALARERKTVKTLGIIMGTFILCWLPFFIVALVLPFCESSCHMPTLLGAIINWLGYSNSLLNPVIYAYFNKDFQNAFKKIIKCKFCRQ

[6] = target: CYP 2C9 (Homo sapiens, UniProt P11712); experiment: CYP450 inhibition; assay type: in vitro ADME
CYP 2C9, sequence (P11712 whole entry): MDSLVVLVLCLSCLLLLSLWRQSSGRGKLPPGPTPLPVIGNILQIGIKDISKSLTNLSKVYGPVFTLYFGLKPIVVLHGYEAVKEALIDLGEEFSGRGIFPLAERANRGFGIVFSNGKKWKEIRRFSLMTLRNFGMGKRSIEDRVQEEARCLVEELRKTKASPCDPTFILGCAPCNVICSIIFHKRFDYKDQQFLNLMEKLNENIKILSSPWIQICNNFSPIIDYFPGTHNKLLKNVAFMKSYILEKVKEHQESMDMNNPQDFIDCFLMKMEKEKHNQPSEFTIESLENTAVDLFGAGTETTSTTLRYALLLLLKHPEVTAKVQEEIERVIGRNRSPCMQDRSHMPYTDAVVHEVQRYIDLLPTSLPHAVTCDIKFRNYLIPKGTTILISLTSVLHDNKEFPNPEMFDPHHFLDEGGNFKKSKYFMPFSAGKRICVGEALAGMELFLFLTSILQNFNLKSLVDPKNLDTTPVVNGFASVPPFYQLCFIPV

[7] = target: 3A5 (Homo sapiens, UniProt P20815); experiment: CYP450 phenotyping, recombinant enzymes; assay type: in vitro ADME; details: 3A5, panel of eight recombinant enzymes
3A5, sequence (P20815 whole entry): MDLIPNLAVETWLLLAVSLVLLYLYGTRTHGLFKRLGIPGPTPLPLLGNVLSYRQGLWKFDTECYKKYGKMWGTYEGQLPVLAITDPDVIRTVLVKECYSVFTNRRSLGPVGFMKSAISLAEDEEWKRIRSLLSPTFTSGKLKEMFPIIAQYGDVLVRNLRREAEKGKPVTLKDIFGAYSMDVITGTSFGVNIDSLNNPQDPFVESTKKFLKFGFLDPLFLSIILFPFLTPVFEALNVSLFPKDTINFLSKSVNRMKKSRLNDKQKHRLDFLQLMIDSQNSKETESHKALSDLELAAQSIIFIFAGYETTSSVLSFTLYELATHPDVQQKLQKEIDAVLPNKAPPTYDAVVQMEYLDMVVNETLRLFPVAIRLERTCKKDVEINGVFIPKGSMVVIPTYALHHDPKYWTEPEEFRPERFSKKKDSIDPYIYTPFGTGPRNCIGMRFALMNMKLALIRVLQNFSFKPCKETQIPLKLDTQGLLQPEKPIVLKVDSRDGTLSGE

[8] = test system: M1 KO mice; experiment: Racine seizure assay in M1 KO mice; assay type: in vivo, mouse; details: result in words
[9] = test system: Glutamate, NMDA, Phencyclidine; experiment: Eurofins radioligand binding; details: Rat

Cn1cc2c(-c3cc(F)c(CN4Cc5ncccc5C4=O)c(F)c3)ccc(C(C)(C)O)c2n1 [compound 7]
F (%) po ([1]; 3 mg/kg po): 65%
clearance ([1]; plasma, 1 mg/kg iv, read-out: CLp): 8.4 mL/min/kg
half-life ([1]; plasma, 1 mg/kg iv, read-out: Elimination t1/2 (converted)): 4.1 h
Vd ([1]; plasma, 1 mg/kg iv, read-out: Vss): 2.3 L/kg
AUC ([1]; plasma, 3 mg/kg po): 9 µM·h
Cmax ([1]; plasma, 3 mg/kg po): 700 nM
Tmax ([1]; plasma, 3 mg/kg po): 1.33 h
Kp ([2]; brain:plasma): 1.08
Kp at 15 min ([2]; male, Sprague Dawley, brain and plasma, intravenous, 0.2 mg/kg, brain:plasma): 1.07
Kp uu at 15 min ([2]; male, Sprague Dawley, brain and plasma, intravenous, 0.2 mg/kg, unbound brain:unbound plasma): 1.27
inhibition at 10 µM [3]: -4%
inhibition at 10 µM [4]: -9%
inhibition at 10 µM [5]: 12%
IC50 [6]: > 30 µM
contribution to metabolism, CYP450 phenotyping [7]: 3.2%
Racine-scale effects in M1 KO mice [8]: absent
% Inhibition at 10 µM [9]: -1%
